Common to all, as to test: NCI anticancer screen, dose series, 48 h
Test [1] has as its system NCI-H23 lung.
Test [2] concerns HCC-2998 colon.
For test [3], the system named is M14 melanoma.
The test system of test [4] is SNB-75 CNS.
Test [5] concerns A498 renal.
Test [6] deals with OVCAR-5 ovarian.
Test [7] concerns OVCAR-3 ovarian.
Test [8] concerns 786-0 renal.
The subject of test [9] is NCI-H522 lung.
Test [10] concerns UACC-62 melanoma.

Molecules are shown by their SMILES.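 Each compound was tested at five concentrations against cells in 96-well plates for 48 hours. At the GI50, growth is halved. TGI: total growth inhibition.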

This is an account of results in PubChem BioAssay (NCI).

On to `Cc1c(-c2ccc(N3CCc4cccc(C(=O)Nc5nc6ccccc6s5)c4C3)nc2C(=O)O)cnn1CC12CC3CC(CC(C3)C1)C2`, for which the GI50 was 13.4 µM in test [1]; below 0.0329 µM in [2]; 7.7 µM in test [3]; 9.35 µM in [4]; below 0.01 µM in test [5]; 11.4 µM in [6]. In addition, the GI50 in test [7] is 6.19 µM; in test [8], 3.65 µM; in test [9] it was 10.8 µM; in [10], 3.65 µM. In addition, the TGI in test [1] is 35.4 µM; in [2] it was 1.34 µM; in [3], 25.4 µM; in test [4] it was 36.8 µM; in [5] it was below 0.0127 µM; in [6], 32.4 µM. Moreover, the TGI worked out at 20.9 µM in test [7], 12.4 µM in test [8], 28 µM in test [9] and 15.4 µM in [10].
Regarding `COc1cc2c(cc1OCCCN1CCN(CCCn3c4ccccc4c4ccccc43)CC1)N=C[C@@H]1CCCN1C2=O`, the GI50 is 0.122 µM in test [1]; 0.12 µM in test [2]; 0.211 µM in test [3]; below 0.0395 µM in test [4]; 0.158 µM in test [5]; 0.0625 µM in test [6]. Moreover, the GI50 in test [7] is 0.0669 µM; in test [8], 0.28 µM; in test [10], 0.162 µM. Besides, the TGI in [1] amounted to 0.599 µM; in test [2], 0.37 µM; in test [3] it was 0.656 µM; in [4], 0.102 µM; in [5] it was 0.35 µM; in [6] it was 0.648 µM. The TGI in test [7] came out at 1.16 µM; in test [8] it was 1.01 µM; in test [9] it was 0.182 µM; in test [10], 0.347 µM.
For the compound `Cn1c(=O)c(-c2c(Cl)cccc2Cl)cc2cnc(Nc3ccc(N4CCOCC4)cc3)nc21`, the GI50 is below 0.01 µM in test [1]; 0.0431 µM in test [2]; below 0.01 µM in test [3]; below 0.01 µM in test [4]; below 0.0433 µM in [5]; 0.0349 µM in test [6]. For the same compound, the GI50 in test [7] is 0.323 µM; in test [8] it was below 0.01 µM; in test [9], 0.0202 µM; in test [10], below 0.0131 µM. Moreover, the TGI in test [1] was 0.31 µM; in test [2], 0.209 µM; in [4], 0.0916 µM; in test [5], 0.14 µM; in test [6] it was 0.799 µM; in test [7] it was above 100 µM. Besides, the TGI in [8] was 0.519 µM; in test [9], 0.42 µM.
In the case of `O=C(c1ccccc1)c1ccc(N2C(=O)C3C4c5ccccc5C(/C=C/C(=O)c5ccccn5)(c5ccccc54)C3C2=O)cc1` (configuration not stated), the GI50 was 2.05 µM in test [1]; 1.72 µM in test [2]; 3.4 µM in test [3]; 0.94 µM in test [4]; 2.19 µM in test [5]; 2 µM in test [6]. The GI50 is 1.83 µM in test [7], 2.55 µM in test [8], 2.28 µM in test [9] and 2.21 µM in [10]. Also, the TGI in [1] was 5.09 µM; in test [2] it was 3.34 µM; in test [3], above 100 µM; in test [4], above 100 µM; in test [5], 5.8 µM; in [6], 5.97 µM. Also, the TGI in test [7] was 3.85 µM; in [8], 6.85 µM; in test [9], 6.82 µM; in test [10], 7.44 µM.
As for `Cn1ncc2c(c1=O)Nc1ccccc1S2(=O)=O`, the TGI in test [1], in [2], in test [3], in test [4], in [5] and in test [6] was above 100 µM each time. Also, the TGI in test [7] is above 100 µM; in test [8], 75.3 µM; in [9] it was above 100 µM; in test [10] it was above 100 µM.
With `CCC(=C(c1ccc(OCCN(CC)CC)cc1)c1ccc(OCCN(CC)CC)cc1)c1ccc(Cl)cc1`, the GI50 was 0.652 µM in test [1]; 0.532 µM in test [2]; 0.585 µM in test [3]; 0.668 µM in test [4]; 0.591 µM in [5]; 0.559 µM in [6]. Further, the GI50 in [7] is 0.577 µM; in test [8], 0.565 µM; in test [9], 0.564 µM; in [10] it was 0.592 µM. Also, the TGI in test [1] turned out to be 1.41 µM; in test [2], 1.02 µM; in [3], 1.11 µM; in test [4], 2.32 µM; in test [5], 1.66 µM; in test [6], 1.06 µM. In addition, the TGI in test [7] was found to be 1.14 µM; in [8], 1.08 µM; in [9], 1.21 µM; in [10], 1.13 µM.
Turning to `O=C(O)C12C3C4C1C1C2C3C41I` (configuration not stated), the TGI in test [1], in [2], in test [3], in test [4], in test [5] and in test [6] was above 100 µM throughout. Moreover, the TGI in [7], in test [8], in [9] and in test [10] was above 100 µM throughout.
For `O=C1OC(c2ccccc2)=N/C1=C\c1ccc(N(CCCl)CCCl)cc1`, the TGI in [1], in test [2], in test [3], in test [4], in [5] and in [6] was above 100 µM in each case. For the same compound, the TGI in [7] is above 100 µM; in test [8] it was above 100 µM; in test [9], above 95.7 µM; in test [10], above 100 µM.
